Results as given in US20130028986A1, “Pharmaceutical Compositions” (SABAREP LIMITED, priority 2005, published 2013).

Tested on: skin or epidermal barrier (skin treated with clobetasol propionate)
Experiment: Topical corticosteroid induced protease skin barrier damage model (tape stripping, TEWL)
Assay type: in vivo, human (volunteer)
Conditions: for rate of TEWL increase during tape stripping: compared to control and vehicle alone, up to 20 tape strips
Excerpt: Topical glucocorticoids (corticosteroids), which are used in the treatment of atopic dermatitis, damage the skin barrier and cause changes to the lipids within the epidermis, and a reduction in the number corneodesmosomes holding the corneocytes together. […] Therefore, skin that has been pretreated with gluticocorticoids can provide a good model in which to test the efficacy of compounds for their capacity to restore the skin or epidermal barrier and to be useful in the treatment of dermato logical conditions that compromise the skin or epidermal barrier, particularly those involving an abnormal decrease in the cell-to-cell adhesion between epithelial cells (in particular between corneocytes) such as atopic eczema or dermatitis, sebarrhoeic eczema, irritant contact dermatitis, allergic contact dermatitis and other sensitive skin conditions. […] The techniques disclosed by Kao et al. provide a measure of barrier integrity and corneocyte cohesion (any increases in TEWL are indicative of a loss in barrier function and increases in total protein removed by the skin strips are the result of a loss of intercellular cohesion, and vice versa). The methods employed by Kao were therefore used in the following examples. The TEWL measurements were taken using an “Aquaflux AF 102” electrolytic water analyser (Available from Biox Systems Ltd, Southwark Campus, 103 Borough Road, London SE1 0AA, UK) in the manner described in Berg et al. (Berg, E. P. Pascut, F. C, Ciortea, L. L, O'Driscoll, D., Xiao, P. and Imhof, R. E. (2002), Aquaflux—A new instrument for water vapour flux density measurement Proceedings of the 4th International Symposium on Humidity and Moisture, Centre for Measurement Standards, ITRI, RoC, ISBN 957-774-423-0, pp. 288-95) and Ciortea et al. (Ciortea, L. I. O'Driscoll, D., Berg, E. P., Xiao, P., Pascut, F. C. and Imhof, R. E. (2002), New methods for measuring water desorption and vapour permeation rates in membranes Proceedings of the 4th International Symposium on Humidity and Moisture, Centre for Measurement Standards, ITRI, RoC, ISBN 957-774-423-0, pp. 288-95).
Microfine zinc oxide (available from BASF Aktiengesellschaft, 67056 Ludwigshafen, Germany, under the trade mark Z-Cote®, item no. 55082355, or from Univar, Basildon, Essex, UK, as item no. 76011010; see also: Z-Cote®, BASF; Mitchnick, M. A., Fairhurst, D. and Pinnell, S. R. (1999) J Am Acad Dermatol 40: 85-90) (25%) in light liquid paraffin was applied twice a day to a volunteer's left forearm for 4 days; their right forearm received light liquid paraffin only. One fingertip unit of clobetasol propionate (a potent corticosteroid) was then applied twice a day to the study areas for 3 days. TEWL was then measured at base line and following the removal of 4, 8, 12 and 16 tape strips.
Microfine zinc oxide, 5 and 15%, in light liquid paraffin was applied twice a day to a volunteer's the left bicep and left forearm for 4 days, respectively; the right bicep received light liquid paraffin only. […] TEWL was then measured at base line and following the removal of 4, 8, 12 and 16 tape strips. […]
Four finger dips of 12 mg/ml zinc stearate in light liquid paraffin were applied to the right forearm for 9 days, twice daily. […] On day 10, TEWL was measured at base line following the removal of 4, 8, 12 and 16 tape strips. […]

With `CCCCCCCCCCCCCCCC(=O)O` [palmitic acid, Hexadecanoic acid] the “rate of TEWL increase during tape stripping” value (Example Id, FIG. 5, 12 mg/ml in PEG400/ethanol (7:3) 6 times a day for 4 days, then clobetasol propionate 3 times over 24 hours) was “significantly reduced”.
For `[O-2].[Zn+2]` [Microfine zinc oxide, zinc oxide], the “reduction in TEWL following the removal of 16 tape strips” value (Example Ia, FIG. 2, 25% in light liquid paraffin twice a day for 4 days on left forearm, then clobetasol propionate twice a day for 3 days, compared with light liquid paraffin only) was 37.5%, the “protective effect (TEWL at base line and after 4, 8, 12 and 16 tape strips)” value (Example Ib, FIG. 3, 5 and 15% in light liquid paraffin twice a day for 4 days, clobetasol propionate twice a day for 3 days, compared with light liquid paraffin only) was “dose-dependant response” and the “rate of TEWL increase during tape stripping” value (Example Ie, FIG. 6, zinc oxide 25% (alone or with 12 mg/ml palmitic acid) in PEG400/ethanol (7:3) 6 times a day for 4 days, clobetasol propionate 3 times over 48 hours) was “significantly reduced”.
With zinc stearate the “protection against the effects of clobetasol (TEWL at base line and after 4, 8, 12 and 16 tape strips)” value (Example Ic, FIG. 4, 12 mg/ml in light liquid paraffin twice daily for 9 days on right forearm, clobetasol propionate twice a day on days 6 to 9, TEWL on day 10) was “can also protect against the effects of clobetasol”.
